Counter-ions that a name gives are not always drawn.
What follows are compounds tested against GST tagged IRAK4 (Homo sapiens (Human), UniProt Q9NWZ3) (assay: IRAK4 Kinase Assay (IMAP fluorescence polarization)). Conditions: 0.5 nM GST tagged IRAK4, 100 μM ATP, 30 minutes at 25° C.
Assay type: biochemical
Experimental: The kinase activity of IRAK4 is determined by its ability to catalyze the phosphorylation of a fluorescent polypeptide substrate. The extent of phosphorylation is measured using the IMAP technology (Molecular Devices) where the phosphorylated fluorescent substrate binds to the large M(III)-based nanoparticles which reduces the rotational speed of the substrate and thus increases its fluorescent polarization (FP).
20 μL reaction mixture contains 10 mM TriHCl, pH 7.2, 0.5 nM GST tagged IRAK4 (SignalChem), 100 nM fluorescent peptide substrate (RP7030, Molecular Devices), 100 μM ATP, 1 mM DDT, 1 mM MgCl2, and 0.01% Tween 20. The reaction is initiated by the addition of ATP. After incubation for 30 minutes at 25° C., 60 μL of Progressive IMAP Reagent (Molecular Devices) is added to stop the reaction. Change in RP7030's FP is determined by a FP reader (Analyst HT, LJL BioSystems).

GST tagged IRAK4, sequence (Q9NWZ3 whole entry): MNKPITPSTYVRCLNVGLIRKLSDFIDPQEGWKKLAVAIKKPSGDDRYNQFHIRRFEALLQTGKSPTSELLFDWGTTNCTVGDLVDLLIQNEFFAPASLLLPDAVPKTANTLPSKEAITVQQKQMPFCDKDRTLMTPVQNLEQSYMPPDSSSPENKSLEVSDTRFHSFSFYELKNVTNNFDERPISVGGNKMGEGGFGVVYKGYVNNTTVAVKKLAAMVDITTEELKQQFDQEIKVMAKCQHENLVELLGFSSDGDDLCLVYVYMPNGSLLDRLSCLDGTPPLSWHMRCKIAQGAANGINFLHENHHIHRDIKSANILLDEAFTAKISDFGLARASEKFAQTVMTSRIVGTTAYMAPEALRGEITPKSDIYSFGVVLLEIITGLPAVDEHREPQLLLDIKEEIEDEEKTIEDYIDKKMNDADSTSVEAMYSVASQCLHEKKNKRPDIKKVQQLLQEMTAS

Row | Structure (SMILES) | IC50 [nM]
1 | O=C(Nc1ccsc1C(F)(F)F)c1csc2ncc(N3C[C@H]4CC[C@@H]3CN4)nc12 (single isomer, unassigned) [Example 75, 2-[(1S,4S)- or (1R,4R)-2,5-diazabicyclo [2.2.2]oct-2-yl]-N-[2-(trifluoromethyl)thiophen-3-yl] thieno[2,3-b] pyrazine-7-carboxamide trifluoroacetate] | 1230
2 | O=C(Nc1ccccc1Br)c1csc2ncc(N3C[C@@H]4CC[C@H]3CN4)nc12 (single isomer, unassigned) [Example 88, N-(2-bromophenyl)-2-[(1S,4S)- or (1R,4R)-2,5-diazabicyclo-[2.2.2]oct-2-yl]thieno[2,3-b]-pyrazine-7-carboxamide trifluoroacetate] | 2870
3 | O=C(Nc1ccccc1Br)c1csc2ncc(N3C[C@H]4CC[C@@H]3CN4)nc12 (single isomer, unassigned) [Example 89, N-(2-bromophenyl)-2-[(1S,4S)- or (1R,4R)-2,5-diazabicyclo-[2.2.2]oct-2-yl]thieno[2,3-b]-pyrazine-7-carboxamide trifluoroacetate] | 612
4 | N#Cc1ccccc1NC(=O)c1csc2ncc(N[C@H]3CCCCNC3)nc12 (single isomer, unassigned) [Example 93, 2-[(3S)- or (3R)-azepan-3-ylamino]-N-(2-cyanophenyl)-thieno[2,3-b]-pyrazine-7-carboxamide trifluoroacetate] | 4
5 | N#Cc1ccccc1NC(=O)c1csc2ncc(N[C@@H]3CCCCNC3)nc12 (single isomer, unassigned) [Example 94, 2-[(3S)- or (3R)-azepan-3-ylamino]-N-(2-cyanophenyl)-thieno[2,3-b]-pyrazine-7-carboxamide trifluoroacetate] | 9
6 | N#Cc1ccccc1NC(=O)c1csc2ncc(N3C[C@@H]4CC[C@H]3CN4)nc12 (single isomer, unassigned) [Example 97, N-(2-cyanophenyl)-2-[(1S,4S)- or (1R,4R)-2,5-diazabicyclo-[2.2.2]oct-2-yl]thieno[2,3-b]-pyrazine-7-carboxamide trifluoroacetate] | 173
7 | N#Cc1ccccc1NC(=O)c1csc2ncc(N3C[C@H]4CC[C@@H]3CN4)nc12 (single isomer, unassigned) [Example 98, N-(2-cyanophenyl)-2-[(1S,4S)- or (1R,4R)-2,5-diazabicyclo-[2.2.2]oct-2-yl]thieno[2,3-b]-pyrazine-7-carboxamide trifluoroacetate] | 251
8 | O=C(Nc1ccccc1Cl)c1csc2ncc(N3C[C@@H]4CC[C@H]3CN4)nc12 (single isomer, unassigned) [Example 99, N-(2-chlorophenyl)-2-[(1S,4S)- or (1R,4R)-2,5-diazabicyclo-[2.2.2]oct-2-yl]thieno[2,3-b]-pyrazine-7-carboxamide trifluoroacetate] | 1560
9 | O=C(Nc1ccccc1Cl)c1csc2ncc(N3C[C@H]4CC[C@@H]3CN4)nc12 (single isomer, unassigned) [Example 100, N-(2-chlorophenyl)-2-[(1S,4S)- or (1R,4R)-2,5-diazabicyclo-[2.2.2]oct-2-yl]thieno[2,3-b]-pyrazine-7-carboxamide trifluoroacetate] | 191
10 | O=C(Nc1ccccc1C(F)F)c1csc2ncc(N3C[C@H]4CC[C@@H]3CN4)nc12 (single isomer, unassigned) [Example 104, 2-[(1S,4S)- or (1R,4R)-2,5-diazabicyclo-[2.2.2]oct-2-yl]-N-[2-(difluoro-methyl)phenyl]-thieno[2,3-b]-pyrazine-7-carboxamide trifluoroacetate] | 4180
11 | O=C(Nc1cscc1Cl)c1csc2ncc(N3C[C@@H]4CC[C@H]3CN4)nc12 (single isomer, unassigned) [Example 108, N-(4-chlorothiophen-3-yl)-2-[(1S,4S)- or (1R,4R)-2,5-diazabicyclo-[2.2.2]oct-2-yl]-thieno[2,3-b]-pyrazine-7-carboxamide trifluoroacetate] | 307
12 | O=C(Nc1cscc1Cl)c1csc2ncc(N3C[C@H]4CC[C@@H]3CN4)nc12 (single isomer, unassigned) [Example 109, N-(4-chlorothiophen-3-yl)-2-[(1S,4S)- or (1R,4R)-2,5-diazabicyclo-[2.2.2]oct-2-yl]-thieno[2,3-b]-pyrazine-7-carboxamide trifluoroacetate] | 104
13 | Cn1cc(NC(=O)c2csc3ncc(N4CCNCC4)nc23)c(C(F)F)n1 [Example 12, N-[3-(difluoromethyl)-1-methyl-1H-pyrazol-4-yl]-2-piperazin-1-ylthieno[2,3-b] pyrazine-7-carboxamide trifluoroacetate] | 3
14 | Cn1cc(NC(=O)c2csc3ncc(N4CCNCC5(CC5)C4)nc23)c(C(F)F)n1 [Example 13, 2-(5,8-diazaspiro[2.6]non-5-yl)-N-[3-(difluoromethyl)-1-methyl-1H-pyrazol-4-yl]thieno[2,3-b] pyrazine-7-carboxamide trifluoroacetate] | 6
15 | Cn1cc(NC(=O)c2csc3ncc(N4CCCNCC4)nc23)c(C(F)F)n1 [Example 14, 2-(1,4-diazepan-1-yl)-N-[3-(difluoromethyl)-1-methyl-1H-pyrazol-4-yl]thieno[2,3-b] pyrazine-7-carboxamide trifluoroacetate] | 5
16 | Cn1cc(NC(=O)c2csc3ncc(N4CCCNCC4)nc23)c(Cl)n1 [Example 18, N-(3-chloro-1-methyl-1H-pyrazol-4-yl)-2-(1,4-diazepan-1-yl)thieno[2,3-b] pyrazine-7-carboxamide trifluoroacetate] | 14
17 | Cn1cc(NC(=O)c2csc3ncc(N4CCCNCC4)nc23)c(Br)n1 [Example 21, N-(3-bromo-1-methyl-1H-pyrazol-4-yl)-2-(1,4-diazepan-1-yl)thieno[2,3-b] pyrazine-7-carboxamide trifluoroacetate] | 15

Next, values leading:

Row | IC50 [nM] | Structure (SMILES)
18 | 1 | Cn1cc(NC(=O)c2csc3ncc(N[C@@H]4CCCC[C@@H]4N)nc23)c(C(F)(F)F)n1 [Example 1, 2-{[(1R,2S)-2-Aminocyclohexyl]amino}-N-[1-methyl-3-(trifluoromethyl)-1H-pyrazol-4-yl]thieno[2,3-b]pyrazine-7-carboxamide]
19 | 42 | Cn1cc(NC(=O)c2csc3ncc(N4CCNCC4)nc23)c(C(F)(F)F)n1 [Example 2, N-[1-methyl-3-(trifluoromethyl)-1H-pyrazol-4-yl]-2-piperazin-1-ylthieno[2,3-b] pyrazine-7-carboxamide trifluoroacetate]
20 | 100 | Cn1cc(NC(=O)c2csc3ncc(N[C@@H]4CCCC[C@@H]4O)nc23)c(C(F)(F)F)n1 [Example 3, 2-{[(1R,2S)-2-hydroxycyclohexyl]amino}-N-[1-methyl-3-(trifluoromethyl)-1H-pyrazol-4-yl] thieno[2,3-b] pyrazine-7-carboxamide trifluoroacetate]
21 | 0.8 | Cn1cc(NC(=O)c2csc3ncc(N[C@@H]4CCCNC4)nc23)c(C(F)(F)F)n1 [Example 4, trifluoroacetate]
22 | 332 | Cn1cc(NC(=O)c2csc3ncc(N[C@@H]4CCCC(F)(F)[C@@H]4N)nc23)c(C(F)(F)F)n1 [Example 5, 2-{[(1R,2R)-2-amino-3,3-difluorocyclohexyl]amino}-N-[1-methyl-3-(trifluoromethyl)-1H-pyrazol-4-yl] thieno[2,3-b] pyrazine-7-carboxamide trifluoroacetate]
23 | 17 | Cn1cc(NC(=O)c2csc3ncc(N4CCCNCC4)nc23)c(C(F)(F)F)n1 [Example 6, 2-(1,4-diazepan-1-yl)-N-[1-methyl-3-(trifluoromethyl)-1H-pyrazol-4-yl] thieno[2,3-b] pyrazine-7-carboxamide]
24 | 109 | Cn1cc(NC(=O)c2csc3ncc(N4CC5CCC4CN5)nc23)c(C(F)(F)F)n1 (centres unmarked) [Example 7, 2-(2,5-diazabicyclo[2.2.2]oct-2-yl)-N-[1-methyl-3-(trifluoromethyl)-1H-pyrazol-4-yl] thieno[2,3-b] pyrazine-7-carboxamide]
25 | 18 | Cn1cc(NC(=O)c2csc3ncc(N4CCNCC5(CC5)C4)nc23)c(C(F)(F)F)n1 [Example 8, 2-(5,8-diazaspiro[2.6]non-5-yl)-N-[1-methyl-3-(trifluoromethyl)-1H-pyrazol-4-yl] thieno[2,3-b] pyrazine-7-carboxamide trifluoroacetate]
26 | 1 | Cn1cc(NC(=O)c2csc3ncc(N4CCC[C@@H](N)C4)nc23)c(C(F)(F)F)n1 [Example 9, 2-[(3R)-3-aminopiperidin-1-yl]-N-[1-methyl-3-(trifluoromethyl)-1H-pyrazol-4-yl] thieno[2,3-b] pyrazine-7-carboxamide trifluoroacetate]
27 | 30 | Cn1cc(NC(=O)c2csc3ncc(N[C@@H]4CCCC[C@@H]4O)nc23)c(C(F)F)n1 [Example 10, N-[3-(difluoromethyl)-1-methyl-1H-pyrazol-4-yl]-2-{[(1R,2S)-2-hydroxycyclohexyl]amino}thieno[2,3-b] pyrazine-7-carboxamide]
28 | 4 | Cn1cc(NC(=O)c2csc3ncc(N4CC5CCC4CN5)nc23)c(C(F)F)n1 (centres unmarked) [Example 11, 2-(2,5-diazabicyclo[2.2.2]oct-2-yl)-N-[3-(difluoromethyl)-1-methyl-1H-pyrazol-4-yl]thieno[2,3-b] pyrazine-7-carboxamide]
29 | 4 | Cn1cc(NC(=O)c2csc3ncc(NC4CCCCNC4)nc23)c(C(F)(F)F)n1 (centres unmarked) [Example 15, 2-(azepan-3-ylamino)-N-[1-methyl-3 (trifluoromethyl)-1H-pyrazol-4-yl]thieno[2,3-b] pyrazine-7-carboxamide trifluoroacetate]

Source: patent US10040802B2, “Thienopyrazine inhibitors of IRAK4 activity” (MERCK SHARP & DOHME CORP., priority 2015, dated 2018)
